# Patent US20240148728A1, “NOVEL METHOD TO BLOCK IN[…] DEATH AND IL-1BETA SECRETION CAUSED BY […] UV I[…] GENETIC AND CHEMICAL INHIBITORS OF ZAKA AND THE NLRP1 INFLAMMASOME” (priority 2021, published 2024)
# How the values were obtained:
# Assay type in all cases: cell-based, human
# N-TERT cells [1] = test: Secreted IL1β / inflammasome activation in N-TERT cells; conditions: for effect on ANS- and TNFα+DT-triggered NLRP1 activation: N-TERTs, BTZ 0.5 μM, MLN4924 0.25 μM
# Protocol: (§1) To measure secreted cytokine and chemokine levels a human IL1β enzyme linked immunosorbent assay (ELISA) kit (BD, #557953), human IL-18 ELISA kit (MBL, #7620) or an Immune Monitoring 65-Plex Human ProcartaPlex Panel (EPX650-10065-901) were used according to manufacturer's protocols. Further analysis of Luminex or ELISA profiling of samples was performed using heatmap and PCA analysis on Clustervis (biitdotcsdotutdotee/clustvis/) [Somani et al., Proceeding of SSIC (2019)].
# (§2) The following antibodies were used in this study: cleaved PARP1 (Abclonal, #WH162766), Cleaved CASP3 (Abclonal, #WH154646), Full length GSDMD-FL (Abcam, #ab210070), IL1β p17 specific (CST, #83186S), CARD8 (Abcam, CARD8-NT: ab19485, CARD8-CT: ab241186), DPP9 (Abcam, ab226334), c-Myc (Santa Cruz Biotechnology, #sc-40), HA tag (Santa Cruz Biotechnology, #sc-805), GAPDH (Santa Cruz Biotechnology, #sc-47724), ASC (Adipogen, #AL-177), CASP1 (Santa Cruz Biotechnology, #sc-622), 11_1B (R&D systems, #AF-201), FLAG (SigmaAldrich, #F3165), NLRP1 (R&D systems, #AF6788), IL18 (Abcam ab207324), cleaved GSDMD-NT (Asp275) (Cell Signaling Technology, #36425), RPL31 (Abclonal, #WH162766), CASP7 (Abcam, ab255818), CASP8 (Abcam, ab32397), cleaved CASP3 (Cell Signaling Technology, #9664). All horseradish peroxidase (HRP)— conjugated secondary antibodies were purchased from Jackson Immunoresearch (goat anti-mouse IgG: 115-035-166; goat anti-rabbit IgG: 111-035-144; and donkey anti-goat IgG: 705-005-147). Blue-Native PAGE was carried out using the Native-PAGE system (ThermoFisher) with 10-20 μg of total lysate. For SDS-PAGE using whole cell lysates, cells were resuspended in tris-buffered saline 1% NP-40 with protease inhibitors (Thermo Scientific, #78430). Protein concentration was determined using the Bradford assay (Thermo Scientific, #23200) and […] of protein loaded, a part from cleaved GSDMD-NT visualisation where […] of protein was used. All primary antibodies were used at 250 ng/ml. Visualisation of ASC oligomerization was previously described (Robinson et al., 2020). For analysis of IL1β and IL-18 cleavage in the media by immunoblotting, samples were concentrated using filtered centrifugation (Merck, Amicon Ultra, #UFC5003BIK). Protein samples were run using immunoblotting, and then visualized using a ChemiDoc Imaging system (Bio-Rad). PhosTag SDS-PAGE was carried out using homemade 10% SDS-PAGE gel, with addition of Phos-tag Acrylamide (Wako Chemicals, AAL-107) to a final concentration of 30 μM and manganese chloride(II) (Sigma-Aldrich, #63535) to 60 μM.
# 293T-ASC-GFP-NLRP1 = conditions: for ASC-GFP speck formation, screen of cytotoxic chemicals: ANS 1 μM, LTM 1 μg/ml, STS 1 μM; for effect on ANS- and TNFα+DT-triggered NLRP1 activation: 293T-NLRP1-ASC-GFP reporter cells, BTZ 0.5 μM, MLN4924 0.25 μM
# [2] = test system: immortalized keratinocytes (N-TERT); test: Pyroptosis / apoptosis in N-TERT keratinocytes (morphology, ASC-GFP, PI, Annexin V, immunoblot); conditions: for morphological hallmarks of inflammasome activation and pyroptotic cell death: membrane ballooning, ASC-GFP specks, PI uptake
# Text: as §2
# N-TERT-ASC-GFP cells were seeded at a cell density of 3000 cells/well of a 96 black well plate (PerkinElmer, CellCarrier-96 Ultra, #6055300). The next morning cells were treated with chemicals for 6 h or treated in the evening for 24 h before staining. 1 hour before observing the cells on the microscope the cells were stained with 1 μg/ml dilution of propidium iodide (PI, Abcam #ab14083), 10 ng/ml dilution of Hoechst 33342 (Life Technologies, #H21492) or stained with Annexin V Alexa Flour 647 (Life technologies, #A23204) according to the manufacturer's protocol. Stained cells were then imaged on a high content screening microscope (Perkin Elmer Operetta CLS imaging system). Images were then stored and analyzed using the Harmony software (Version 6). Fluorescent and brightfield images acquired on the Operetta high content screening microscope were further analyzed using a scoring system to categorize the percentages of live, apoptotic and pyroptotic cells. For 3 fields of view per treatment the number of live cells per field was counted from the merge of the brightfield and ASC-GFP channels. Only cells which contained ASC-GFP throughout the cytoplasm and nucleus were classed as “live”. The number of pyroptotic cells was calculated using the merge of the brightfield and ASC-GFP channels. Only the cells with GFP specks were classed as “pyroptotic”. The number of apoptotic cells was calculated using the merge of the brightfield, ASC-GFP and Annexin V channels. Cells that were stained positive for Annexin V but without a GFP speck were classified as “apoptotic”. Images of ASC-GFP specks were acquired in 3 random fields in 4′,6-diaminidino-2-phenylindole (DAPI, 358 nm/461) and GFP (469 nm/525 nm) channels using the EVOS microscope (FL Auto M5000, #AM F5000) according to the manufacturer's protocol. […]
# NLRP1-NT = test: NLRP1 cleavage / NLRP1-NT level by immunoblot
# Text: as §2
# N-TERT cells [3] = test: UVB triggered cell death and IL-1beta release in N-TERT cells
# Protocol: For UVA and UVB irradiation experiments, cells were seeded 24 hours prior to irradiation, and washed once in phosphate buffered saline pH 7.4 before being exposed to indicated dose of irradiation using a BIO-SUN microprocessor controlled, cooled UV irradiation system (BIO-SUN, Vilber). After exposure, PBS was replaced by keratinocyte medium and cells were incubated for indicated time.
# as §1
# NLRP1^DR = test: NLRP1 PYD-DR1 / NLRP1^DR phosphorylation (GFP fusion, immunoblot, PhosTag SDS-PAGE) in N-TERT cells
# Text: as §2
# Cells were directly harvested using Laemmli buffer, lysed with an ultrasonicator, and loaded into the Phos-tag gel to run. Once the run was completed, the polyacrylamide gel was washed in transfer buffer with 10 mM EDTA twice, subsequently washed without EDTA twice, blotted onto 0.45 μm PVDF membranes (Bio-rad), blocked with 3% milk, and incubated with primary and corresponding secondary antibodies.
structure (smiles),measurement,setting,value
CCCn1/c(=N/C(=O)c2cccc(C(N)=O)c2)[nH]c2ccccc21 [TAKinib],effect on ANS-induced IL1β secretion,N-TERT cells [1]; selective TAK1 inhibitor,does not have an effect on ANS-induced IL1β secretion
"CN[C@@H]1C[C@H]2O[C@@](C)([C@@H]1OC)n1c3ccccc3c3c4c(c5c6ccccc6n2c5c31)C(=O)NC4 [STS, Staurosporine]","ASC-GFP speck formation, screen of cytotoxic chemicals",293T-ASC-GFP-NLRP1,failed to induce ASC-GFP specks
"C/C(=C\[C@H](C)C(=O)C[C@H](O)CC1CC(=O)NC(=O)C1)[C@@H]1OC(=O)/C=C/CC/C=C/C=C\[C@@H]1C [LTM, Lactimidomycin]","ASC-GFP speck formation, screen of cytotoxic chemicals",293T-ASC-GFP-NLRP1,identified two hits
same,mode of cell death (apoptosis / pyroptosis),"[2]; Annexin V staining and PI inclusion, immunoblot markers",caused both apoptosis and pyroptosis
same,morphological hallmarks of inflammasome activation and pyroptotic cell death,[2],rapidly induced the morphological hallmarks of inflammasome activation and pyroptotic cell death
same,fraction of pyroptotic cells,"[2]; single cell level, compared with VbP",comparable to that induced by VbP
CC[C@H]1CN2CCc3cc(OC)c(OC)cc3[C@@H]2C[C@@H]1C[C@H]1NCCc2cc(OC)c(OC)cc21 [emetine],effect on ANS-induced IL1β secretion,N-TERT cells [1]; 150 μM emetine,completely abrogated
"NS(=O)(=O)OC[C@@H]1C[C@@H](n2ccc3c(N[C@H]4CCc5ccccc54)ncnc32)C[C@@H]1O [MLN4924, ((1S,2S,4R)-4-(4-(((S)-2,3-dihydro-1H-inden-1-yl)amino)-7H-pyrrolo[2,3-d]pyrimidin-7-yl)-2-hydroxycyclopentyl)methyl sulfamate]",effect on ANS- and TNFα+DT-triggered NLRP1 activation,293T-ASC-GFP-NLRP1,abrogated ANS- and TNFα+DT-triggered NLRP1 activation
same,effect on ANS- and TNFα+DT-triggered NLRP1 activation,N-TERT cells [1],abrogated ANS- and TNFα+DT-triggered NLRP1 activation
same,effect on ribotoxin-triggered NLRP1-NT destabilization,NLRP1-NT,could be blocked
same,effect on UVB-dependent NLRP1 activation,N-TERT cells [3],abrogated
same,effect on UVB triggered cell death (PI positive cells),N-TERT cells [3]; 18-hour incubation,blocks UVB triggered cell death and IL-1beta release
same,effect on UVB triggered IL-1beta release,N-TERT cells [3]; IL1β ELISA of cell media,blocks UVB triggered cell death and IL-1beta release
"CC(C)C[C@H](NC(=O)[C@H](Cc1ccccc1)NC(=O)c1cnccn1)B(O)O [bortezomib, [(1R)-3-methyl-1-[[(2S)-3-phenyl-2-(pyrazine-2-carbonylamino)propanoyl]amino]butyl]boronic acid]",effect on ANS- and TNFα+DT-triggered NLRP1 activation,293T-ASC-GFP-NLRP1,abrogated ANS- and TNFα+DT-triggered NLRP1 activation
same,effect on ANS- and TNFα+DT-triggered NLRP1 activation,N-TERT cells [1],abrogated ANS- and TNFα+DT-triggered NLRP1 activation
same,effect on ribotoxin-triggered NLRP1-NT destabilization,NLRP1-NT,could be blocked
"CN(CC[C@H](N)CC(=O)N[C@H]1C=C[C@H](n2ccc(N)nc2=O)O[C@@H]1C(=O)O)C(=N)N [blasticidin, Blasticidin]",morphological hallmarks of inflammasome activation and pyroptotic cell death,[2],"none of the inhibitors that block the ribosome at the pre-elongation stages, including harringtonin, blasticidin and G418 caused any pyroptosis"
"Cc1cn(-c2cc(NC(=O)c3ccc(C)c(Nc4nccc(-c5cccnc5)n4)c3)cc(C(F)(F)F)c2)cn1 [Nilotinib, 4-methyl-N-[3-(4-methylimidazol-1-yl)-5-(trifluoromethyl)phenyl]-3-[(4-pyridin-3-ylpyrimidin-2-yl)amino]benzamide]",effect on ANS-dependent ASC-GFP speck formation,293T-ASC-GFP-NLRP1; Nilotinib 0.1 μM,abrogated all measures of ANS- and DT-dependent inflammasome activation
same,NLRP1 PYD-DR1 phosphorylation under inhibitor,NLRP1^DR,loss of NLRP1 PYD-DR1 phosphorylation
same,effect on VbP-triggered pyroptosis,N-TERT cells [1],had no discernible effect on VbP-triggered pyroptosis
same,"effect on ANS- and DT-dependent inflammasome activation (ASC oligomerization, IL1β secretion)",N-TERT cells [1]; wild-type N-TERT cells,abrogated all measures of ANS- and DT-dependent inflammasome activation
"COC(=O)C[C@](O)(CCC(C)(C)O)C(=O)O[C@@H]1C(OC)=C[C@]23CCCN2CCc2cc4c(cc2[C@H]13)OCO4 [harringtonin, Harringtonine]",morphological hallmarks of inflammasome activation and pyroptotic cell death,[2],"none of the inhibitors that block the ribosome at the pre-elongation stages, including harringtonin, blasticidin and G418 caused any pyroptosis"
"CC1=C[C@H]2O[C@@H]3[C@H](O)C[C@](C)([C@@]2(CO)[C@H](O)C1=O)[C@]31CO1 [DON, deoxynivalenol]",NLRP1^DR hyperphosphorylation,"NLRP1^DR; NLRP1DR-GFP in N-TERT cells, PhosTag SDS-PAGE",also led to NLRP1^DR hyperphosphorylation
same,band shift (phosphorylation) of PYD-DR1-GFP,NLRP1^DR; NLRP1 KO N-TERT cells expressing GFP-tagged PYD-DR1,band shift in PYD-DR1-GFP
same,morphological hallmarks of inflammasome activation and pyroptotic cell death,[2],caused prominent inflammasome activation and pyroptosis
